Test results from ChEMBL document CHEMBL3991601, “The target landscape of clinical kinase drugs” (Science, 2017).
Activity calls are given as the source filed them. For most assays here, no stated cut-off is given here; in the data, actives have a measured Kd and inactives only a lower limit.

The molecules below were run against GTP-binding protein 4 (Homo sapiens, UniProt Q9BZE4).

| SMILES | Kd |
| --- | --- |
| Cc1ccc(NC(=O)c2ccc(CN3CC[C@H](N(C)C)C3)c(C(F)(F)F)c2)cc1Nc1nccc(-c2cncnc2)n1 [BAFETINIB] | > 30 µM (inactive) |
| Cc1nc(N)sc1-c1ccnc(Nc2ccc(N3CCOCC3)cc2)n1 [CYC-116] | > 30 µM (inactive) |
| CN1CCN(c2ccc3nc(-c4c(N)c5c(F)cccc5[nH]c4=O)[nH]c3c2)CC1 [DOVITINIB] | > 30 µM (inactive) |
| Cc1cc(Nc2cc(N3CCN(C)CC3)nc(/C=C/c3ccccc3)n2)n[nH]1 [ENMD-2076] | > 30 µM (inactive) |
| COCCNCc1ccc(-c2cc3nccc(Oc4ccc(NC(=S)NC(=O)Cc5ccc(F)cc5)cc4F)c3s2)nc1 [GLESATINIB] | > 30 µM (inactive) |
| Cc1cn(-c2cc(NC(=O)c3ccc(C)c(Nc4nccc(-c5cccnc5)n4)c3)cc(C(F)(F)F)c2)cn1 [NILOTINIB] | > 30 µM (inactive) |
| O=C(Nc1cccc(Cl)c1)Nc1ncc(CCNc2ncnc3ccsc23)s1 [SNS-314] | > 30 µM (inactive) |
| Nc1nc(N)c2nc(-c3cccc(O)c3)c(-c3cccc(O)c3)nc2n1 [TG100-115] | > 30 µM (inactive) |

The molecules below were run against Tyrosine-protein kinase ABL2 (Homo sapiens, UniProt P42684).
Tyrosine-protein kinase ABL2, sequence (P42684 whole entry): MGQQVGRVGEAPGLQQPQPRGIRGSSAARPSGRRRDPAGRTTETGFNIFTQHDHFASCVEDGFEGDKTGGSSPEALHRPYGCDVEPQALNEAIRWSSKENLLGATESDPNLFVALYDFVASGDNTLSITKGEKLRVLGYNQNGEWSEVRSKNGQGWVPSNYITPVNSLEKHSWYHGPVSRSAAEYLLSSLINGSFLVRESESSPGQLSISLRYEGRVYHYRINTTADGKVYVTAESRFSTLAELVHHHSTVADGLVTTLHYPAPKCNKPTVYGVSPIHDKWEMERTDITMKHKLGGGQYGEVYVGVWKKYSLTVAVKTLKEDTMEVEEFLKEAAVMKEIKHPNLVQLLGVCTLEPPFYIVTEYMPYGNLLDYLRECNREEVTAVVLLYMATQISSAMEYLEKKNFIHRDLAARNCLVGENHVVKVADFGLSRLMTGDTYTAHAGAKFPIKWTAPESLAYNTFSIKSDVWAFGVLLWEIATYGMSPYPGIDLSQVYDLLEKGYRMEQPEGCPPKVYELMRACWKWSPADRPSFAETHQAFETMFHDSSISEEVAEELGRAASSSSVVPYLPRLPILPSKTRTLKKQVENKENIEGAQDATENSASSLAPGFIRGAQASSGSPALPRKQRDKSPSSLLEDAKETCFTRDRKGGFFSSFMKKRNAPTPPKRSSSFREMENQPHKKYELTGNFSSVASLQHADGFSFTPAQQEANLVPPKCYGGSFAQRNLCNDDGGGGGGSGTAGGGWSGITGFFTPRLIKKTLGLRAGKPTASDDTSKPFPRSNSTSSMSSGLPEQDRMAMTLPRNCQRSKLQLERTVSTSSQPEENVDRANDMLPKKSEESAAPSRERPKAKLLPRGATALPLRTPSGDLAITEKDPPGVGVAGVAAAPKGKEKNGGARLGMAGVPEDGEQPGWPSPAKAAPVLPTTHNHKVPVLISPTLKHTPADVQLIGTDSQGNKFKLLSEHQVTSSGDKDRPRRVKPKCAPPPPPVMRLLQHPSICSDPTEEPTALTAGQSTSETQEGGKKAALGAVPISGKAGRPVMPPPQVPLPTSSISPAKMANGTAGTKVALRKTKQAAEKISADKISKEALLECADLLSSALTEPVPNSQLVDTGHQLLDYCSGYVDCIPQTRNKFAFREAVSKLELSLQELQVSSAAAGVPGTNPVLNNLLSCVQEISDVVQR

| SMILES | Kd |
| --- | --- |
| C[C@@H](Nc1cc(F)cc(F)c1)c1cc(C(=O)N(C)C)cc2c(=O)cc(N3CCOCC3)oc12 [AZD-8186] | > 30 µM (inactive) |
| Cc1nc(N)sc1-c1ccnc(Nc2ccc(N3CCOCC3)cc2)n1 [CYC-116] | > 30 µM (inactive) |
| O=C(Nc1cccc(Cl)c1)Nc1ncc(CCNc2ncnc3ccsc23)s1 [SNS-314] | > 30 µM (inactive) |
| CCn1c(=O)c(-c2cc[nH]n2)cc2c(C)nc(N)nc21 [VOXTALISIB] | > 30 µM (inactive) |

Each molecule was assayed against T1, Serine/threonine-protein kinase ULK3 (Homo sapiens, UniProt Q6PHR2).
T1 sequence (Q6PHR2 whole entry): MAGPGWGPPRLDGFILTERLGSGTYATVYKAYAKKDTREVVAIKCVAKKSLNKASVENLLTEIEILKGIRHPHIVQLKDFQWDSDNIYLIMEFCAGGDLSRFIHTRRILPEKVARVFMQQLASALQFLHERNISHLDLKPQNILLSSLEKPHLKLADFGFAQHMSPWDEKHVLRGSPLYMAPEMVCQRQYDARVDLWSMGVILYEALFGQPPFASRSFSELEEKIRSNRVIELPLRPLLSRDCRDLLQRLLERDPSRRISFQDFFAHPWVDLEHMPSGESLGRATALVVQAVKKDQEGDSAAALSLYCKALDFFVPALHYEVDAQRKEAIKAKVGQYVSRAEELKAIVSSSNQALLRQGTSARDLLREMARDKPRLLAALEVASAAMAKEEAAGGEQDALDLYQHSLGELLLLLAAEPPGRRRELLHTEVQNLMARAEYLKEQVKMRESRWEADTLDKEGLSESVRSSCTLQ

| SMILES | Kd |
| --- | --- |
| C[C@@H](Nc1cc(F)cc(F)c1)c1cc(C(=O)N(C)C)cc2c(=O)cc(N3CCOCC3)oc12 [AZD-8186] | > 30 µM (inactive) |
| Cc1ccc(NC(=O)c2ccc(CN3CC[C@H](N(C)C)C3)c(C(F)(F)F)c2)cc1Nc1nccc(-c2cncnc2)n1 [BAFETINIB] | > 30 µM (inactive) |
| Cc1nc(N)sc1-c1ccnc(Nc2ccc(N3CCOCC3)cc2)n1 [CYC-116] | 0.801 µM (active) |
| Cc1cc(Nc2cc(N3CCN(C)CC3)nc(/C=C/c3ccccc3)n2)n[nH]1 [ENMD-2076] | 0.476 µM (active) |
| COCCNCc1ccc(-c2cc3nccc(Oc4ccc(NC(=S)NC(=O)Cc5ccc(F)cc5)cc4F)c3s2)nc1 [GLESATINIB] | > 30 µM (inactive) |
| O=C(Nc1cccc(Cl)c1)Nc1ncc(CCNc2ncnc3ccsc23)s1 [SNS-314] | > 30 µM (inactive) |
| CCn1c(=O)c(-c2cc[nH]n2)cc2c(C)nc(N)nc21 [VOXTALISIB] | > 30 µM (inactive) |

Each molecule was assayed against Ephrin type-A receptor 5 (Homo sapiens, UniProt P54756).
Ephrin type-A receptor 5, sequence (P54756 whole entry): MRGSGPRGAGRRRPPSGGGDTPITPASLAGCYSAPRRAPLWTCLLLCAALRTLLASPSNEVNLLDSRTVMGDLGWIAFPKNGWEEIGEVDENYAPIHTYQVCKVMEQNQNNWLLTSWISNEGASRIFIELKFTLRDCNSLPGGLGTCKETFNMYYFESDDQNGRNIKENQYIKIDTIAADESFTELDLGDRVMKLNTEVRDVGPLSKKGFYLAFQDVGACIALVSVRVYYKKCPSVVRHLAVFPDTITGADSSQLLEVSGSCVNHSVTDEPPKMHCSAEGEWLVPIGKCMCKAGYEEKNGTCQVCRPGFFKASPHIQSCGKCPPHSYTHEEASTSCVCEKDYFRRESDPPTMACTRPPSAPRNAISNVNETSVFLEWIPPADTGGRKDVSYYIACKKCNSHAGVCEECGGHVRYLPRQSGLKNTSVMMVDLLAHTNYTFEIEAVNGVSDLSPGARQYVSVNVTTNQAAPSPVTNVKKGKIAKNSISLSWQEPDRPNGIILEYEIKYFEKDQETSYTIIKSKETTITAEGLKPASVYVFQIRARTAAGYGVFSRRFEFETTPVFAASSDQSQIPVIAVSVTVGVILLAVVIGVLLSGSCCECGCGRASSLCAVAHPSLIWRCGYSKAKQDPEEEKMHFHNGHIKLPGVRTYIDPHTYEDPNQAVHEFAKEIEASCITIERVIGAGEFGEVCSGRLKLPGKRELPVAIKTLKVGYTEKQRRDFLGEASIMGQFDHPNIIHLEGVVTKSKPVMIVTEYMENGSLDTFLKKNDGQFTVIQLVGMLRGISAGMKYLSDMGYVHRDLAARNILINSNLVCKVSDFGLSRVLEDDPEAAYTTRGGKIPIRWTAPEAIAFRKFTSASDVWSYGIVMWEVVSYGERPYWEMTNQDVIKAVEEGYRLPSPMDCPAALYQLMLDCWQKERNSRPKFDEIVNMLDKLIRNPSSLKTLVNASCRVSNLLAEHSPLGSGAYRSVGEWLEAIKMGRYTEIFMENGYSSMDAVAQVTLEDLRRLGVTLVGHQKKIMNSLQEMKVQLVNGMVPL

| SMILES | Kd |
| --- | --- |
| C[C@@H](Nc1cc(F)cc(F)c1)c1cc(C(=O)N(C)C)cc2c(=O)cc(N3CCOCC3)oc12 [AZD-8186] | > 30 µM (inactive) |
| Cc1ccc(NC(=O)c2ccc(CN3CC[C@H](N(C)C)C3)c(C(F)(F)F)c2)cc1Nc1nccc(-c2cncnc2)n1 [BAFETINIB] | 0.345 µM |
| Cc1cc(Nc2cc(N3CCN(C)CC3)nc(/C=C/c3ccccc3)n2)n[nH]1 [ENMD-2076] | > 30 µM (inactive) |
| COCCNCc1ccc(-c2cc3nccc(Oc4ccc(NC(=S)NC(=O)Cc5ccc(F)cc5)cc4F)c3s2)nc1 [GLESATINIB] | > 30 µM (inactive) |
| O=C(Nc1cccc(Cl)c1)Nc1ncc(CCNc2ncnc3ccsc23)s1 [SNS-314] | > 30 µM (inactive) |
| CCn1c(=O)c(-c2cc[nH]n2)cc2c(C)nc(N)nc21 [VOXTALISIB] | > 30 µM (inactive) |

The molecules below were run against T2, Serine/threonine-protein kinase Nek3 (Homo sapiens, UniProt P51956).
T2 sequence (P51956 whole entry): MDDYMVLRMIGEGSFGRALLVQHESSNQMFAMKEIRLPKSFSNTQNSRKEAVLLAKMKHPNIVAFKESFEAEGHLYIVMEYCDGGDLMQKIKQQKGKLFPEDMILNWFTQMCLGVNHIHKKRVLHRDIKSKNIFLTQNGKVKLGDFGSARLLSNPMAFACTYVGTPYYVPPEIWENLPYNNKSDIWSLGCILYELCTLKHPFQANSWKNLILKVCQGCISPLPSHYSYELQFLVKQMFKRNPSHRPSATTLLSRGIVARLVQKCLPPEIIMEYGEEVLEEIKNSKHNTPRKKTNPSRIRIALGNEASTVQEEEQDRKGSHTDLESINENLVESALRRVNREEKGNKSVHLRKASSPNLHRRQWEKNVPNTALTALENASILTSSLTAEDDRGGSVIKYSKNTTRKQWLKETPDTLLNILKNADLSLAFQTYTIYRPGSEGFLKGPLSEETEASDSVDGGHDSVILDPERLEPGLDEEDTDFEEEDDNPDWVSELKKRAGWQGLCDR

| SMILES | Kd |
| --- | --- |
| C[C@@H](Nc1cc(F)cc(F)c1)c1cc(C(=O)N(C)C)cc2c(=O)cc(N3CCOCC3)oc12 [AZD-8186] | > 30 µM (inactive) |
| Cc1ccc(NC(=O)c2ccc(CN3CC[C@H](N(C)C)C3)c(C(F)(F)F)c2)cc1Nc1nccc(-c2cncnc2)n1 [BAFETINIB] | > 30 µM (inactive) |
| Cc1nc(N)sc1-c1ccnc(Nc2ccc(N3CCOCC3)cc2)n1 [CYC-116] | 0.83 µM (active) |
| Cc1cc(Nc2cc(N3CCN(C)CC3)nc(/C=C/c3ccccc3)n2)n[nH]1 [ENMD-2076] | > 30 µM (inactive) |
| COCCNCc1ccc(-c2cc3nccc(Oc4ccc(NC(=S)NC(=O)Cc5ccc(F)cc5)cc4F)c3s2)nc1 [GLESATINIB] | > 30 µM (inactive) |
| O=C(Nc1cccc(Cl)c1)Nc1ncc(CCNc2ncnc3ccsc23)s1 [SNS-314] | > 30 µM (inactive) |
| CCn1c(=O)c(-c2cc[nH]n2)cc2c(C)nc(N)nc21 [VOXTALISIB] | > 30 µM (inactive) |

What follows are molecules tested against T3, EKC/KEOPS complex subunit TP53RK (Homo sapiens, UniProt Q96S44).
T3 sequence (Q96S44 whole entry): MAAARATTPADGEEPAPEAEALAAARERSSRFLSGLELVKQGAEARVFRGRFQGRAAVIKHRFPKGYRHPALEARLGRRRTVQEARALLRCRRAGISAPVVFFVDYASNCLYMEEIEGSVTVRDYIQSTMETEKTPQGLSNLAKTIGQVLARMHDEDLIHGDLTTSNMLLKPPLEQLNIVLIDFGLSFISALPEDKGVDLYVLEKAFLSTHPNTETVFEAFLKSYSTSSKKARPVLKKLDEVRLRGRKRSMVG

| SMILES | Kd |
| --- | --- |
| C[C@@H](Nc1cc(F)cc(F)c1)c1cc(C(=O)N(C)C)cc2c(=O)cc(N3CCOCC3)oc12 [AZD-8186] | > 30 µM (inactive) |
| Cc1ccc(NC(=O)c2ccc(CN3CC[C@H](N(C)C)C3)c(C(F)(F)F)c2)cc1Nc1nccc(-c2cncnc2)n1 [BAFETINIB] | > 30 µM (inactive) |
| Cc1nc(N)sc1-c1ccnc(Nc2ccc(N3CCOCC3)cc2)n1 [CYC-116] | > 30 µM (inactive) |
| CN1CCN(c2ccc3nc(-c4c(N)c5c(F)cccc5[nH]c4=O)[nH]c3c2)CC1 [DOVITINIB] | > 30 µM (inactive) |
| Cc1cc(Nc2cc(N3CCN(C)CC3)nc(/C=C/c3ccccc3)n2)n[nH]1 [ENMD-2076] | > 30 µM (inactive) |
| COCCNCc1ccc(-c2cc3nccc(Oc4ccc(NC(=S)NC(=O)Cc5ccc(F)cc5)cc4F)c3s2)nc1 [GLESATINIB] | > 30 µM (inactive) |
| CCn1c(-c2nonc2N)nc2c(C#CC(C)(C)O)ncc(OC[C@H]3CCCNC3)c21 [GSK-690693] | > 30 µM (inactive) |
| Cc1cn(-c2cc(NC(=O)c3ccc(C)c(Nc4nccc(-c5cccnc5)n4)c3)cc(C(F)(F)F)c2)cn1 [NILOTINIB] | > 30 µM (inactive) |
| O=C(Nc1cccc(Cl)c1)Nc1ncc(CCNc2ncnc3ccsc23)s1 [SNS-314] | > 30 µM (inactive) |
| Nc1nc(N)c2nc(-c3cccc(O)c3)c(-c3cccc(O)c3)nc2n1 [TG100-115] | > 30 µM (inactive) |
| CCn1c(=O)c(-c2cc[nH]n2)cc2c(C)nc(N)nc21 [VOXTALISIB] | > 30 µM (inactive) |

The molecules below were run against T4, Serine/threonine-protein kinase 3 (Homo sapiens, UniProt Q13188).
T4 sequence (Q13188 whole entry): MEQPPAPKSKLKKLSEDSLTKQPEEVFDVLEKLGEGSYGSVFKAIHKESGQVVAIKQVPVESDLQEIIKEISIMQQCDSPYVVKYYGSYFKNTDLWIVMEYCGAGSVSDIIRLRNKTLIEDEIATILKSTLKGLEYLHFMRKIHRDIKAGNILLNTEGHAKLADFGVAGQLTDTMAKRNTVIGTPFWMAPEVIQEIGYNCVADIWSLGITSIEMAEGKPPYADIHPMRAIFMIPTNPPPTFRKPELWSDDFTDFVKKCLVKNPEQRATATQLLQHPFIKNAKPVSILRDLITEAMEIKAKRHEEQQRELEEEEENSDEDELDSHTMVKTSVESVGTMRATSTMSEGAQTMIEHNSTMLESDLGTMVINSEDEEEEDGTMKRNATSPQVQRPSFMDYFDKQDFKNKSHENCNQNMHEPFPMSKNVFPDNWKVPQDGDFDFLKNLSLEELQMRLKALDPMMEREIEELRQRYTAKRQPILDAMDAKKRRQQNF

| SMILES | Kd |
| --- | --- |
| C[C@@H](Nc1cc(F)cc(F)c1)c1cc(C(=O)N(C)C)cc2c(=O)cc(N3CCOCC3)oc12 [AZD-8186] | > 30 µM (inactive) |
| Cc1ccc(NC(=O)c2ccc(CN3CC[C@H](N(C)C)C3)c(C(F)(F)F)c2)cc1Nc1nccc(-c2cncnc2)n1 [BAFETINIB] | > 30 µM (inactive) |
| COCCNCc1ccc(-c2cc3nccc(Oc4ccc(NC(=S)NC(=O)Cc5ccc(F)cc5)cc4F)c3s2)nc1 [GLESATINIB] | > 30 µM (inactive) |
| CCn1c(=O)c(-c2cc[nH]n2)cc2c(C)nc(N)nc21 [VOXTALISIB] | > 30 µM (inactive) |

Each molecule was assayed against T5, Dual specificity mitogen-activated protein kinase kinase 5 (Homo sapiens, UniProt Q13163).
T5 sequence (Q13163 whole entry): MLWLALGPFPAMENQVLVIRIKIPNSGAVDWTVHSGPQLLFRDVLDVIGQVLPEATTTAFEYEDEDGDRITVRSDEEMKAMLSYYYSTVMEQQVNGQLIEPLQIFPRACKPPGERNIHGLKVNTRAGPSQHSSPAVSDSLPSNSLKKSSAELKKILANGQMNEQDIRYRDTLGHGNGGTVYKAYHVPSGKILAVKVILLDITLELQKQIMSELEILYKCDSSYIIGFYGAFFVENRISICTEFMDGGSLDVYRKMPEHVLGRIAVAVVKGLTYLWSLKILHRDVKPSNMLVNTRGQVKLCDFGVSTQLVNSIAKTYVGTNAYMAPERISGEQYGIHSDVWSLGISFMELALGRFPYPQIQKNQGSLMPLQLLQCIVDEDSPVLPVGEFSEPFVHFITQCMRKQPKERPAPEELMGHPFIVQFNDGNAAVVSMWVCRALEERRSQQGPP

| SMILES | Kd |
| --- | --- |
| C[C@@H](Nc1cc(F)cc(F)c1)c1cc(C(=O)N(C)C)cc2c(=O)cc(N3CCOCC3)oc12 [AZD-8186] | > 30 µM (inactive) |
| Cc1ccc(NC(=O)c2ccc(CN3CC[C@H](N(C)C)C3)c(C(F)(F)F)c2)cc1Nc1nccc(-c2cncnc2)n1 [BAFETINIB] | 11.4 µM (active) |
| Cc1nc(N)sc1-c1ccnc(Nc2ccc(N3CCOCC3)cc2)n1 [CYC-116] | 1.48 µM (active) |
| Cc1cc(Nc2cc(N3CCN(C)CC3)nc(/C=C/c3ccccc3)n2)n[nH]1 [ENMD-2076] | > 30 µM (inactive) |
| COCCNCc1ccc(-c2cc3nccc(Oc4ccc(NC(=S)NC(=O)Cc5ccc(F)cc5)cc4F)c3s2)nc1 [GLESATINIB] | > 30 µM (inactive) |
| O=C(Nc1cccc(Cl)c1)Nc1ncc(CCNc2ncnc3ccsc23)s1 [SNS-314] | > 30 µM (inactive) |
| CCn1c(=O)c(-c2cc[nH]n2)cc2c(C)nc(N)nc21 [VOXTALISIB] | > 30 µM (inactive) |
